Where “and” joins values, the source holds several entries; their conditions need not be identical. Identical values can stand only once. Entries after “also recorded” stand apart in the source; their conditions may differ. Like-named read-outs stand apart in the source and are kept apart here.
Assays:
[1] = Urinary and fecal excretion after a single IV injection; type: in vivo, BALB/C mice
Method: (§1) Pyrrole–imidazole polyamide pharmacokinetic studies were performed in 10- to 12-week-old female BALB/C mice (Charles River). Polyamides were solubilized in PBS (1) or PBS/DMSO (2) and administered via intravenous (IV) tail vein injection at concentrations of 7.5 and 5 mg/kg, respectively. For each experiment, groups of 3 animals were euthanized at 0.083, 0.25, 0.5, 1, 2, 4, 8, and 24 h after injection. Animals designated for the 4, 8, and 24 h time points were housed in metabolic cages for collection of urine and feces as described below. All animals used in the pharmacokinetic experiments were performed under an approved protocol at the City of Hope.
Urine and fecal samples were collected using metabolic cages (Ancare, Techniplast Metabolic Rack, 12 cages by Nalgene). Urine samples were collected at 3 time points over 24 h, and fecal samples were collected at 8 and 24 h time points. […]
Plasma pharmacokinetic parameters were derived from polyamide concentration profiles using both non-compartmental and compartmental methods. […] Additional plasma pharmacokinetic parameters determined from the compartmental analysis include the alpha and beta half-lives (t 1/2) and the apparent volume of distribution (V d). […] Urinary and fecal excretion data were expressed as the cumulative percentage of the administered dose.

[2] = Tissue distribution (liver, kidney, lung) after a single IV injection; type: in vivo, BALB/C mice; details: for Tmax / concentration at 24 h: female, BALB/C, mouse; for concentration at 24 h: experiment endpoint (24 h), read-out: concentration remaining in the liver at the experiment endpoint; for AUC (AUC0–24h) kidney / C max kidney / AUC (AUC0–24h) liver / C max liver / AUC (AUC0–24h) lung / C max lung: 7.5 mg/kg (1), 5 mg/kg (2); for concentration in the lung maintained over the entire time course: lowest level over 24 h
Method: as §1
Distribution of polyamides 1 and 2 was determined in the liver, kidneys, and lungs. The organs were harvested post-euthanasia and prepared via similar processes. A piece of the mouse organ was weighed and mixed with distilled water (3 μL/mg tissue). The tissue was then homogenized by pulsing three times on a TissueLyser for 2 min each at 30 Hz. Next, 30 μL of the tissue homogenate was mixed with 20 μL of 50 % MeOH and 50 % aqueous 1 % HOAc. The mixture was then vortex mixed with 0.12 mL 0.5 % HOAc in MeOH/ACN (2:8) and 20 μL of 6.0 μg/mL INS in MeOH/1 % aqueous HOAc (1:1) for 10 min and centrifuged at the highest setting for an additional 10 min. Samples treated with polyamide 1 were then diluted with 50 % MeOH/ACN (4:6) and 50 % aqueous 1 % HOAc. Samples treated with polyamide 2 were diluted with 50 % MeOH/ACN (4:6) and 50 % aqueous 3 % FA.
Plasma pharmacokinetic parameters were derived from polyamide concentration profiles using both non-compartmental and compartmental methods. Non-compartmental analysis was performed according to statistical moment theory and the rule of linear trapezoids, while compartmental analysis was performed in ADAPT II [24]. Pharmacokinetic parameters estimated from the non-compartmental analysis include the maximum concentration (C max), the terminal elimination half-life (t 1/2), the mean residence time (MRT), the area under the concentration curve (AUC0–24h), the AUC extrapolated to infinity (AUC0–∞), and the clearance (CL). Additional plasma pharmacokinetic parameters determined from the compartmental analysis include the alpha and beta half-lives (t 1/2) and the apparent volume of distribution (V d). Tissue pharmacokinetic parameters were determined non-compartmentally and included the C max and AUC0–24h. Urinary and fecal excretion data were expressed as the cumulative percentage of the administered dose.

[3] = system: androgen receptor (AR) signaling; PSA mRNA in LNCaP prostate cancer cells; details: cited from earlier work
pH stability analysis = type: physicochemical; details: buffers at 37 °C for 24 h; analytical HPLC
Method: The pH stability of Py-Im polyamides was analyzed as previously described. In summary, 15 μL of a 10 μM solution of polyamide 1 or 2 in DMSO was incubated with 85 μL of buffer with pH of 2.5, 4, 7, or 10 (Fluka) at 37 °C for 24 h. After incubation, the sample was mixed with an equal volume of N,N-dimethylformamide and sonicated briefly. Next, 20 μL of the sample solution was mixed with 180 μL of aqueous buffer containing 100 mM NH4OAc and 25 μM methyl 4-nitro-1H-pyrrole-2-carboxylate as an internal standard. Analytical HPLC analysis was performed on a Beckman analytical HPLC.

C57BL/6 mice = experiment: Toxicity (weight loss, signs of duress) after a single SC injection; details: for additional signs of duress / dose level with critical (>15 %) / dose-limiting weight loss: single SC injection, 7-day observation
Source text: Four animals were used in each group unless otherwise noted.

With `CN(CCCNC(=O)c1cccc(C(=O)O)c1)CCCNC(=O)c1cc(NC(=O)c2cc(NC(=O)c3cc(NC(=O)c4nc(NC(=O)[C@H](N)CCNC(=O)c5cc(NC(=O)c6cc(NC(=O)c7cc(NC(=O)c8nccn8C)cn7C)cn6C)cn5C)cn4C)cn3C)cn2C)cn1C` [Polyamide 1] the cumulative urinary excretion ([1]; nearly complete by 4 h, single IV 7.5 mg/kg) was 5.7 ± 2.9 % of the administered dose, the Tmax ([2]; kidney, single IV, read-out: time of maximum concentration in kidney postinjection (converted)) was 5 min and the concentration at 24 h ([2]; liver, single IV) was 4800 ± 300 ng/g. The Tmax ([2]; liver, single IV, read-out: time of maximum concentration in liver postinjection (converted)) was 5 min, the Tmax ([2]; lung, single IV, read-out: time of peak concentration in lung following injection (converted)) was 15 min and the “AUC (AUC0–24h) kidney” value ([2]; kidney, single IV) was 299.2 µg·h/g. For the same compound, the C max kidney ([2]; kidney, single IV) was 27.0 ± 2.9 µg/g, the “AUC (AUC0–24h) liver” value ([2]; liver, single IV) was 157.7 µg·h/g and the C max liver ([2]; liver, single IV) was 11.7 ± 1.3 µg/g. For the same compound, the “concentration in the lung maintained over the entire time course” value ([2]; lung, single IV) was “above 2.8 ± 0.2 μg/g”, the “AUC (AUC0–24h) lung” value ([2]; lung, single IV) was 130.6 µg·h/g and the C max lung ([2]; lung, single IV) was 16.4 ± 1.4 µg/g. For the same compound, the “most active concentration for inhibition of DHT-induced genes” value ([3]; LNCaP cells co-treated with DHT) was 7.4 µg/mL, the “stability at pH 2.5, 4, 7, and 10” value (pH stability analysis) was “did not display significant signs of degradation at any pH” and the “additional signs of duress” value (C57BL/6 mice) was “no additional sign of duress was observed”. For the same compound, the “dose level with critical (>15 %) / dose-limiting weight loss” value (C57BL/6 mice) was 10 mg/kg.

With `CC(=O)N[C@@H](CNC(=O)c1cc(NC(=O)c2cc(NC(=O)c3cc(NC(=O)c4nccn4C)cn3C)cn2C)cn1C)CC(=O)Nc1cn(C)c(C(=O)Nc2cc(C(=O)Nc3cc(C(=O)Nc4cc(C(=O)NCCCN(C)CCCNC(=O)c5cccc(C(=O)O)c5)n(C)c4)n(C)c3)n(C)c2)n1` [Polyamide 2] the “cumulative urinary excretion at 24 h” value ([1]; 24 h, single IV 5 mg/kg) was 46.0 ± 15.2 % of the administered dose, the concentration at 24 h ([2]; liver, single IV) was 17400 ± 8100 ng/g and the “time of maximum concentration in kidney postinjection” value ([2]; kidney, single IV) was 5 min. For the same compound, the “AUC (AUC0–24h) kidney” value ([2]; kidney, single IV) was 424.7 µg·h/g, the C max kidney ([2]; kidney, single IV) was 35.1 ± 2.8 µg/g and the “time of maximum concentration in liver postinjection” value ([2]; liver, single IV) was 5 min. The “AUC (AUC0–24h) liver” value ([2]; liver, single IV) was 301.3 µg·h/g, the C max liver ([2]; liver, single IV) was 43.8 ± 0.7 µg/g and the “lung C max of polyamide 2 relative to compound 1” value ([2]; lung, initial distribution) was “greater than 15 fold”. For the same compound, the “concentration in the lung maintained over the entire time course” value ([2]; lung, single IV) was over 21.8 ± 7.6 µg/g, the “time of peak concentration in lung following injection” value ([2]; lung, single IV) was 15 min and the “AUC (AUC0–24h) lung” value ([2]; lung, single IV) was 523.5 µg·h/g. For the same compound, the C max lung ([2]; lung, single IV) was 256 ± 93.1 µg/g, the “activity relative to polyamide 1 (AR-driven gene / PSA mRNA downregulation)” value ([3]; cell culture) was “tenfold increase; also recorded: equivalent activity to 1 at tenfold less concentration” and the “stability at pH 2.5, 4, 7, and 10” value (pH stability analysis) was “did not display significant signs of degradation at any pH”. For the same compound, the “relative toxicity in weight curve experiments” value (C57BL/6 mice; single SC injection of 1 and 2) was “more toxic”, the “additional signs of duress” value (C57BL/6 mice) was “multiple signs of duress such as loss of ambulation and hunched posture in addition to weight loss; also recorded: additional signs of physical duress in addition to weight loss at all concentrations except 1.1 mg/kg” and the “dose level with critical (>15 %) / dose-limiting weight loss” value (C57BL/6 mice) was 4.5 mg/kg and 2.3 mg/kg.
